# Where a SMILES comes first, the peptide text is derived from it.
# How the values were obtained:
# [1] = tested on: Musclebind Like Protein 1 (MBNL1); assay: MBNL1 protein expression in human skeletal muscle cells (hSKMC), HTRF; type: cell-based; settings: 0.5 mg/ml, 48 hours, relative to basal control
# Experimental: Musclebind Like Protein 1 (MBNL1) in Human Skeletal Muscle Cells (hSKMC)
# An increase of MBNL-1 in muscle cells helps maintaining the tone of facial skin muscles. Thus, compounds able to enhance MBNL-1 can be used as a good approach for cosmetic treatment of sagging facial appearance.
# Human skeletal muscle cells (hSKMC) were cultured at 100,000 cells in T25 flasks with growth medium. After 4 days, cells reached around 80% of confluency and were seeded at 150,000 cells per well in 12-well plates in growth medium. Cells were incubated for 72 hours and then they were changed to differentiation medium and incubated during 48 hours. At the end of this period, cells were treated with defined peptides (0.5 mg/ml) and with medium alone for control conditions during 48 hours in differentiation medium. Cells were also treated with 2 mM of ketoprofen as a positive control.
# After the incubation period, cells were lysed and frozen at −80 °C. For total protein quantification protein extract was measured by Bicinchoninic Acid (BCA) method. MBNL1 protein detection was performed by Homogeneous Time Resolved Fluorescence (HTRF) technology. Normalization of MBNL1 levels were performed by total protein quantification for each condition. Results are expressed as a relative MBNL1 protein level respect to control conditions. At least 3 replicates were carried out per condition.
# [2] = tested on: Musclebind Like Protein 1 (MBNL1); assay: MBNL1 protein in human dermal fibroblasts (HDFa), immunofluorescence; type: cell-based; settings: HDFa cells; for % Fold induction (FI) (MEAN ± SEM), MBNL1 intensity: 24 hours, basal control = 100; for % MME (MEAN ± SEM), comparative MBNL1 intensity with respect to electrical stimulation: MES = 100, control = 0
# Experimental: Musclebind Like Protein 1 (MBNL1) in Human Dermal Fibroblasts (HDF)
# The aim of this study was to evaluate the increase of MBNL1 protein in human skin fibroblasts after electrical stimulation, mimicking a microcurrent-like treatment. Topical products able to increase MBNL1 protein amount in fibroblast cells, in a similar way to the microcurrent-like treatment, could induce the same antiaging benefits on the skin avoiding the side-effects of physical microcurrent treatment
# Cells were seeded at 100.000 cells/well in 12-well plates over sterile glass slides and incubated at 37 °C, 5% CO2 for 48 hours. After that, electrical stimulation was performed. Glass slides were transferred to 6-well plates and were electro-stimulated (1.5V) for 1 hour using a C-dish device (IonOptix™) at room temperature. An identical 6-well plate with non-stimulated cells were incubated at room temperature for 1 hour. After electrostimulation, glass slides were transferred again to a 12-well plate and incubated at 37 °C, 5% CO2 for 24 hours. Three different replicates were used for each condition.
# Cells were seeded at 8.000 cells/well in 96-well plates and incubated at 37 °C, 5% CO2 for 48 hours. After the incubation time, cells were treated with PEP-1 (H-Leu-Pro-Val-Thr-OH) at 0.01 mg/ml, 0.1 mg/ml and 0.5 mg/ml for 24 hours. Cells incubated with medium alone were used as a control. Three replicates were carried out for each condition.
# After 24 hours of incubation, cells were washed two times with phosphate buffered saline (PBS), fixed with 4% PFA (paraformaldehyde solution) for 15 minutes and washed again two times. After that, cells were permeabilized with 1% X-Triton solution for 15 minutes and blocked with 5% bovine serum albumin (BSA) solution for 1 hour. Cells were incubated with 1/20 dilution of primary antibody against MBNL1 protein (Sigma) in 5% BSA solution for 2 hours. After the incubation time, cells were washed and incubated with 1/200 dilution of secondary antibody (AlexFluor™ 488) in 5% BSA solution for 1 hour. Finally, cells were washed 3 times and stained with 4′,6-Diamidine-2′-phenylindole dihydrochloride (DAPI) mount solution for nuclei detection. MBNL1 protein quantification were measured as fluorescence intensity of MBNL1 normalized by the number of nuclei for each condition using a confocal microscope (Operetta® confocal microscope, PerkinElmer Inc) using Alexa 488 Green channel (Ex: 460-490 nm/Em: 500-550 nm). Results are expressed as an MBNL1 level that is relative to that of the control condition.
# At least, three independent experiments were analyzed in this assay.
# Results were calculated using the following formula: […]
# For comparative purposes, the effect of the peptide was compared with that of MES. The effect was calculated as follows: […]
structure (smiles),measurement,setting,value
"CC(C)C[C@H](N)C(=O)N1CCC[C@H]1C(=O)N[C@H](C(=O)N[C@H](C(=O)O)[C@@H](C)O)C(C)C [PEP-1, H-Leu-Pro-Val-Thr-OH] (H-LPVT-OH)",% MBNL1 vs Basal control,[1],213.0%
same,"% Fold induction (FI) (MEAN ± SEM), MBNL1 intensity",[2]; 0.01 mg/ml,106.66 ± 2.65%
same,"% MME (MEAN ± SEM), comparative MBNL1 intensity with respect to electrical stimulation",[2]; 0.01 mg/ml,52.73 ± 2.65%
same,"% Fold induction (FI) (MEAN ± SEM), MBNL1 intensity",[2]; 0.1 mg/ml,107.67 ± 1.62%
same,"% MME (MEAN ± SEM), comparative MBNL1 intensity with respect to electrical stimulation",[2]; 0.1 mg/ml,60.73 ± 1.62%
same,"% Fold induction (FI) (MEAN ± SEM), MBNL1 intensity",[2]; 0.5 mg/ml,109.46 ± 2.68%
same,"% MME (MEAN ± SEM), comparative MBNL1 intensity with respect to electrical stimulation",[2]; 0.5 mg/ml,74.90 ± 2.68%
